Measured values from publication doi:10.1101/2024.12.20.629780v2 (bioRxiv, 2024).
Ends that are not written are not given here.

Tests used:
S. aureus ATCC 12600 [1] = test: Peritonitis/sepsis mouse model; format: in vivo, CD-1 mice
[2] = Solubility in autoclaved deionized water; format: physicochemical
[3] = system: PMA-differentiated human monocytes (THP-1); test: MTT cytotoxicity assay; format: cell-based; conditions: Ala-scan
S. aureus ATCC 12600 [4] = test: Skin abscess infection mouse model; format: in vivo, CD-1 mice; conditions: general indicator of potential toxicity
[5] = Resistance to proteolytic degradation in human serum; format: in vitro ADME; conditions: 25% human serum in water

| Molecule | Solubility in autoclaved deionized water [2] | other results |
| --- | --- | --- |
| CNC(C)C1CCC(N)C(OC2C(N)CC(N)C(OC3OCC(C)(O)C(NC)C3O)C2O)O1 (stereo not shown) [gentamicin, reference compound] |  | Slope of intracellular versus extracellular bacterial loads (linear regression) (S. aureus ATCC 12600 [1]; peritoneal lavage, log10 CFU, n = 9 per group): 1.37 |
| ARWWLYKRALAATTIKIKRRK [F1A-Turingcin-46] | Soluble |  |
| FAWWLYKRALAATTIKIKRRK [R2A-Turingcin-46] | Soluble |  |
| FRAWLYKRALAATTIKIKRRK [W3A-Turingcin-46] | Soluble |  |
| FRWALYKRALAATTIKIKRRK [W4A-Turingcin-46] | Soluble | Cytotoxicity in PMA-differentiated THP-1 cells relative to Turingcin-46 [3]: reduced cytotoxicity |
| FRWWAYKRALAATTIKIKRRK [L5A-Turingcin-46] | Soluble | Cytotoxicity in PMA-differentiated THP-1 cells relative to Turingcin-46 [3]: reduced cytotoxicity |
| FRWWLAKRALAATTIKIKRRK [Y6A-Turingcin-46] | Soluble |  |
| FRWWLYARALAATTIKIKRRK [K7A-Turingcin-46] | Soluble |  |
| FRWWLYKAALAATTIKIKRRK [R8A-Turingcin-46] | Soluble |  |
| FRWWLYKRAAAATTIKIKRRK [L10A-Turingcin-46] | Soluble |  |
| FRWWLYKRALAAATIKIKRRK [T13A-Turingcin-46] | Soluble |  |
| FRWWLYKRALAATAIKIKRRK [T14A-Turingcin-46] | Soluble |  |
| FRWWLYKRALAATTAKIKRRK [I15A-Turingcin-46] | Soluble |  |
| FRWWLYKRALAATTIAIKRRK [K16A-Turingcin-46] | Soluble |  |
| FRWWLYKRALAATTIKAKRRK [I17A-Turingcin-46] | Soluble |  |
| FRWWLYKRALAATTIKIARRK [K18A-Turingcin-46] | Soluble |  |
| FRWWLYKRALAATTIKIKARK [R19A-Turingcin-46] | Soluble |  |
| FRWWLYKRALAATTIKIKRAK [R20A-Turingcin-46] | Soluble | Cytotoxicity in PMA-differentiated THP-1 cells relative to Turingcin-46 [3]: reduced cytotoxicity |
| FRWWLYKRALAATTIKIKRRA [K21A-Turingcin-46] | Soluble | Cytotoxicity in PMA-differentiated THP-1 cells relative to Turingcin-46 [3]: reduced cytotoxicity |
| FRWWLYKRALAATTIKIKRRK [Turingcin-46] | Soluble | Body weight change, skin abscess model (S. aureus ATCC 12600 [4]): no significant changes in body weight; remaining at 1 h, 7 mg mL-1 [5]: ~50%; Body weight change, peritonitis/sepsis model (S. aureus ATCC 12600 [1]; at the tested dose): no significant changes in body weight |
| ILARLSSILKLI [Turingcin-4] | Insoluble |  |
| KILIRKILTIIERKLLRSNLKS [Turingcin-12] | Soluble |  |
| KILWYRIILIRFQKVW [Turingcin-5] | Insoluble |  |
| KIWKIKILRINKKTSSIIA [Turingcin-14] | Soluble |  |

| Molecule | Solubility in autoclaved deionized water [2] | other results |
| --- | --- | --- |
| KKIIIKFLIFNTKL [Turingcin-19] | Soluble |  |
| KKRVYRQKIRLIKKAIFFKKR [Turingcin-18] | Soluble |  |
| KKVWYIKVKLALALIKNI [Turingcin-3] | Soluble |  |
| KLRSSKKIFQIAAKFNKLFRRK [Turingcin-26] | Soluble |  |
| KMWKLRIKLTI [Turingcin-13] | Soluble |  |
| KQIKQRSIRIKIFKKIL [Turingcin-24] | Soluble |  |
| KRIKILRKYKWNQQYKKKL [Turingcin-16] | Soluble |  |
| KRRAARIKQLRFIQQSLREERIIQKLIK [Turingcin-6] | Soluble |  |
| LIWRRKIFRIKLRI [Turingcin-17] | Soluble |  |
| QRRVLRFKLNTKIARLINLNI [Turingcin-27] | Soluble |  |
| RIINIILNRNLKKIILAAAIRNAIRW [Turingcin-22] | Soluble |  |
| RILRKVWTAWLREAALTIKVKR [Turingcin-9] | Soluble |  |
| RILRKWSNWWWNNWLIWK [Turingcin-28] | Soluble |  |
| RLIKAILNRVWKAWAIQKK [Turingcin-2] | Soluble |  |
| RLKSILLLIVTKINIRLKIA [Turingcin-7] | Soluble |  |
| RRLNSKINLYLRIIIALINK [Turingcin-20] | Soluble |  |
| RRWVHKILLIIIKILA [Turingcin-1] | Soluble |  |
| RVWKTLRIKVYFARRKQR [Turingcin-25] | Soluble |  |
| RWWYTSIIKKKLNKIIA [Turingcin-11] | Soluble |  |
| RYIRLLVILKLA [Turingcin-10] | Soluble |  |
| SRKYRQLAKYIWRNLANKNRLIIKA [Turingcin-15] | Soluble |  |
| VMRRFFRLLRKIKL [Turingcin-23] | Soluble |  |
| WAVKSSRIIYTLLRKLKTWFNIKAK [Turingcin-8] | Soluble |  |
| WYLIRVALIAFKKA [Turingcin-21] | Insoluble |  |
